Measured values taken from patent publication US4261977A, “Streptomycetal antibiotic” (Beecham Group Limited, priority 1975, dated 1981).
Where a name gives a salt, the structure may show the parent alone.

Legend:
[1] = Stability of salts and unsalted acid; type: physicochemical; details: salts compared with unsalted acid; in solution
[2] = system: Streptococcus pyogenes CN10; experiment: Antibacterial activity, microtitre method (Table 2); type: cell-based; details: heavy inoculum
Description: (§1) The antibacterial activity of the material produced as above was determined by the microtitre method using the overnight inoculum of the test organism at 0.2% concentration. The synergistic activity of the di-sodium salt of MM 17880 in combination with ampicillin and with cephaloridine against Klebsiella aerogenes and Staphylococcus aureus Russell are shown in Table 3.
(§2) Microtitre heavy inoculum

Streptococcus faecalis I = experiment: as above; type: cell-based; details: heavy inoculum
Description: as §1, §2

Proteus morganii I580 = experiment: as above; type: cell-based; details: heavy inoculum
Description: as §1, §2

[3] = system: gram-positive and gram-negative organisms; experiment: Antibacterial activity determined by the microtiter method (general statement); type: cell-based; details: substantially pure di-sodium salt, certain gram-positive and gram-negative organisms
Klebsiella aerogenes = experiment: Activity by conventional hole in plate method on agar; type: cell-based; details: yellow solid after cellulose chromatography; arbitrary units
Description: 300 ml. of 10% Pluronic L81 in soya-bean oil was added to prevent foaming. The fermentation was harvested after 48 hours and clarified by centrifugation. The clarified brew was arbitarily assigned an activity of 340 units/ml when assayed by the conventional hole in plate method on agar seeded with Klebsiella aerogenes.

[4] = system: β-lactamase producing strains of Staphylococcus aureus and Klebsiella aerogenes; experiment: Synergy with β-lactam antibiotics (general statement); type: cell-based; details: substantially pure di-sodium salt; with ampicillin, amoxycillin and the like; certain bacteria

Compound	stability [1]	MIC [2]	MIC (Streptococcus faecalis I)	MIC (Proteus morganii I580)	antibacterial activity [3]	activity (Klebsiella aerogenes)	synergy with β-lactam antibiotics [4]
CC(=O)NCCSC1=C(C(=O)O)N2C(=O)C(C(C)OS(=O)(=O)O)C2C1 (stereo not shown) [MM 17880]	tends to decompose in solution	< 0.04 µg/mL	6.2 µg/mL	1.6 µg/mL	–	–	–
CC(=O)NCCSC1=C(C(=O)O)N2C(=O)C(C(C)OS(=O)(=O)O)C2C1 (stereo not shown) [di-sodium salt of MM 17880]	–	–	–	–	good level of antibacterial activity	16,000 units/mg	able to synergyse the anti-bacterial activity of β-lactam antibiotics
